Key:
[1] = Size and polydispersity index (PDI) of the lipid nanoparticle by dynamic light scattering; type: physicochemical; conditions: LNP encapsulating eGFP mRNA, ionizable lipid/DOPE/cholesterol/DMG-PEG2000 50/10/48.25/1.25 mol%, N/P 12; for Particle size: in nm (unit assumed)
Method: (§1) The ionizable lipid compound and positive control 1 from Example I were dissolved in ethanol at a molar ratio of 50:10:48.25:1.25 with DOPE, cholesterol, and DMG-PEG2000 (all purchased from A.V.T (Shanghai) Pharmaceutical Co., Ltd.) to prepare an ethanol lipid solution. The enhanced green fluorescent protein (eGFP) mRNA was diluted in 20 mM citrate buffer (pH=6.1) to obtain an mRNA aqueous solution. By using a microfluidic device (Micro&Nano Biologics Co., Ltd., model: INano ™ L) mix ethanol lipid solution and mRNA aqueous solution in a volume ratio of 1:3 to prepare a lipid nanoparticle with a total lipid to mRNA N/P ratio of 12. The medium was replaced by ultrafiltration, ethanol was removed and volumed with DPBS. Finally, the lipid nanoparticle was filtered through a 0.2 µm sterile filter to obtain an LNP preparation encapsulating eGFP mRNA using ionizable lipid/DOPE/cholesterol/DMG-PEG2000 (50/10/48.25/1.25 mol%), with an mRNA content of 0.002 mg/ml-0.5 mg/mL.
(§2) Using Malvern Zetasizer Nano ZS (Malvern UK), the size and polydispersity index (PDI) of the lipid nanoparticle were determined by dynamic light scattering in 173° backscatter detection mode, and the encapsulation efficiency was measured by Ribogreen method.

DC2.4 cells = experiment: In vitro transfection of cells with eGFP-mRNA lipid nanoparticle (LNP preparation), fluorescence imaging and flow cytometry; type: cell-based, mouse; conditions: for Cell viability, % / Positive rate, %: DC2.4 cells, 200 ng of mRNA per well, after 24 hours; for Positive rate, %: eGFP positivity rate; for Mean fluorescence intensity: eGFP-mRNA expression on DC2.4 after 24 hours, normalized based on Example 11
Source text: (§3) This example used mouse bone marrow-derived dendritic cells DC2.4 (purchased from Millipore) as the validation cell line for a lipid nanoparticle transfection experiment. DC2.4 cells adhered to the wall for growth. All operational steps of cell culture strictly followed the prescribed procedures, using sterile reagents for aseptic operations under a sterile workbench. The main operational steps involved were as follows: • 1) Cell recovery: the preserved cell cryopreservation solution was removed from the -80 °C freezer and immediately placed in a 37 °C water bath for rapid and continuous shaking, allowing it to completely melt within one minute. Fresh culture medium was added to a 15 mL centrifuge tube in advance, and the cell fluid was added to the centrifuge tube in a biosafety cabinet. A centrifuge tube of the same mass was taken, placed symmetrically in the centrifuge, and centrifuged at low speed for 5 minutes at 1200 rpm. After centrifugation, the upper clear liquid was removed, and an appropriate amount of culture medium was slowly added along the tube wall. After the cells were gently blown and dispersed evenly, the cell suspension was drawn and added to the prepared culture bottle. The state and distribution of cells in the early stage of recovery were observed under a microscope. The culture bottle was incubated in a 5% CO2 incubator at 37 °C, and the recovery time was recorded. • 2) Cell passaging: Under a microscope, if the cell density in the field of view reached 80%-90%, cells could be passaged and cultured. Adherent cells required trypsin digestion. In order to avoid residual serum in the culture medium reducing trypsin activity, the original culture medium was removed, and DPBS solution was added to wash once. After suctioning out the DPBS solution, trypsin was added to degrade the protein at the intercellular junction, thereby separating the cells and facilitating further cultivation. The mixture was gently shaken well and placed into the incubator for digestion for 2-3 minutes. After digestion was complete, an appropriate amount of culture medium was immediately added to the original culture dish to terminate digestion. Finally, a pipette was used to carefully blow off the cells and blow them until they were evenly dispersed, and then the cells were inoculated and subcultured in a certain proportion according to experimental requirements.
(§4) Transfection of DC2.4 cells • 1) DC2.4 cell recovery: the frozen DC2.4 cells were taken out from the -80 °C refrigerator and immediately put into a 37 °C water bath for rapid thawing. After melting, they were added to the preheated culture medium, and centrifuged at 1200 rpm for 5 minutes. The supernatant was discarded, and an appropriate amount of DMEM medium containing 10% FBS was added to resuspend the recovered DC2.4 cells, which were placed in a 37 °C, 5% CO2 incubator for activation culture. • 2) According to experimental requirements, DC2.4 cells were transfected into 24 well plates one day in advance. By counting cells, the number and viability of cells were recorded, and a cell suspension with 2 × 10^5 cells per well were taken. Then, a certain volume of DMEM medium containing 10% FBS was added and mixed evenly, wherein 1 mL was added per well for subsequent transfection experiments. • 3) After 24 hours, the culture medium was gently aspirated with a pipette 30 minutes in advance, and each well was washed with 1 mL of DPBS and aspirated. […] The mixture was placed in a 37 °C, 5% CO2 incubator for activation cultivation. • 6) After 24 hours, cell viability (%), eGFP positivity rate (%), and mean fluorescence intensity data were obtained through cell fluorescence imaging and flow cytometry.

[2] = Encapsulation efficiency of the lipid nanoparticle (eGFP mRNA) by Ribogreen method; type: physicochemical; conditions: LNP encapsulating eGFP mRNA, ionizable lipid/DOPE/cholesterol/DMG-PEG2000 50/10/48.25/1.25 mol%, N/P 12
Method: as §1, §2

[3] = In vitro transfection of cells with eGFP-mRNA lipid nanoparticle (LNP preparation), fluorescence imaging and flow cytometry; type: cell-based, mouse; conditions: mouse, dc2.4 cells, 200 ng of mRNA per well, after 24 hours; read-out: Cell viability, %
Source text: as §3, §4

| PDI [1] | Encapsulation rate, % [2] [%] | Particle size [1] | Compound | Cell viability, % (DC2.4 cells) [%] | Positive rate, % (DC2.4 cells) [%] | Mean fluorescence intensity (DC2.4 cells) | viability at 24 h [3] [%] | Cell viability, % (DC2.4 cells; 1440 min) [%] |
| --- | --- | --- | --- | --- | --- | --- | --- | --- |
| 0.24 | 66.08 |  | 4,4'-(3-(((2-hydroxyethyl)((E)-4-oxo-4-(undecyloxy)but-2-en-1-yl)amino)propyl)azadiyl)(2E,2'E)-di(but-2-enoic acid) [Example 105] | 95.8 | 78.32 | 0.39 |  |  |
| 0.12 | 93.93 | 94.58 | 4,4'-didecyl((4-(decyloxy)-4-oxobutyl)(3-hydroxypropyl)amino)butyl)azetidinyl)dibutanoate [Example 102] | 94.6 | 93.18 | 1.28 |  |  |
| 0.13 | 93.34 | 89.25 | 8-((6Z,10Z,46Z,49Z)-30-(3-hydroxypropyl)-20,36-dioxo-26,30-diaza-19,37-dioxapentatriacontane-6,9,46,49-tetraen-26-yl)(7Z,10Z)-hexadec-7,10-dien-1-yl octanoate [Example 96] | 96.6 | 94.64 | 0.97 |  |  |
| 0.24 | 97.27 |  | CCCCCCCCC(CCCCCCCC)OC(=O)CCCCCCCN(CCO)CCCN(CCCCCCCC(=O)OC(CCCCCCCC)CCCCCCCC)CCCCCCCC(=O)OC(CCCCCCCC)CCCCCCCC [Example 2, Di(heptadecane-9-yl)8,8'-((3-((8-(heptadecane-9-oxy)-8-oxooctyl)(2-hydroxyethyl)amino)propyl)azanediyl)dioctanoate] |  | 73.48 |  | 82.9 |  |
| 0.12 | 95.96 | 92.13 | CC(C)=CCC/C(C)=C/COC(=O)CCCCCCCN(CCO)CCCN(CCCCCCCC(=O)OC/C=C(\C)CCC=C(C)C)CCCCCCCC(=O)OC/C=C(\C)CCC=C(C)C [Example 3, Di((E)-3,7-dimethyloctan-2,6-dien-1-yl)8,8'-((3-((8-(((E)-3,7-dimethyloctan-2,6-dien-1-yl)oxo)-8-oxooctyl)(2-hydroxyethyl)amino)propyl)azanediyl)dioctanoate] |  | 93.43 |  | 68.6 |  |
| 0.25 | 60.89 |  | CCCCCCCOC(=O)CCCCCCCN(CCO)CCCN(CCCCCCCC(=O)OCCCCCCC)CCCCCCCC(=O)OCCCCCCC [Example 4, Diheptyl 8,8'-((3-((8-(heptyloxy)-8-oxooctyl)(2-hydroxyethyl)amino)propyl)azanediyl)dioctanoate] |  | 78.26 |  | 75.9 |  |
| 0.16 | 94.14 |  | CCCCCOC(=O)CCCCCCCN(CCO)CCCN(CCCCCCCC(=O)OCCCCC)CCCCCCCC(=O)OCCCCC [Example 5, Dipentyl 8,8'-((3-((2-hydroxyethyl)(8-oxo-8-(pentyloxy)octyl)amino)propyl)azanediyl)dioctanoate] |  | 83.41 |  | 86.6 |  |
| 0.10 | 99.04 | 65.19 | CCCCCCCCCCCOC(=O)CCCCN(CCO)CCCN(CCCCC(=O)OCCCCCCCCCCC)CCCCC(=O)OCCCCCCCCCCC [Example 38, Diundecyl 5,5'-((3-((2-hydroxyethyl)(5-oxo-5-(undecyloxy)pentyl)amino)propyl)azadiyl)dipentanoate] |  | 90.28 |  |  | 94.1 |
| 70.67 | 99.80 | 99.80 | CCCCC/C=C\C/C=C\CCCCCCCCOC(=O)CCCCCCCN(CCO)CCCN(CCCCCCCC(=O)OCCCCCCCC/C=C\C/C=C\CCCCC)CCCCCCCC(=O)OCCCCCCCC/C=C\C/C=C\CCCCC [Example 79] |  | 95.05 |  |  | 95.0 |
| 0.11 | 97.58 | 89.72 | CCCCCCCCCCCCOC(=O)CCCN(CCCO)CCCCN(CCCC(=O)OCCCCCCCCCCCC)CCCC(=O)OCCCCCCCCCCCC [Example 84] |  | 96.42 |  |  | 90.2 |
| 0.10 | 93.32 |  | CCCCCCCCCCCCCOC(=O)CCCN(CCCO)CCCCN(CCCC(=O)OCCCCCCCCCCCCC)CCCC(=O)OCCCCCCCCCCCCC [Example 85, 4,4'-((4-((3-hydroxypropyl)(4-oxo-4-(tridecyloxy)butyl)amino)butyl)azetidinyl)dibutyric acid diester] |  | 96.2 |  |  | 95.9 |
| 0.14 | 94.33 | 84.42 | CCCCCCCCCCCCCOC(=O)CCCCCCCN(CCO)CCCN(CCCCCCCC(=O)OCCCCCCCCCCCCC)CCCCCCCC(=O)OCCCCCCCCCCCCC [Example 90, Tridecyl 8-(29-hydroxy-15-oxo-23-(8-oxo-8-(tridecyloxy)octyl)-23,27-diaza-14-oxanonacosane-27-yl)octanoate] |  | 92.38 |  |  | 91.6 |
| 0.24 | 79.63 |  | CCCCCCCCCCCOC(=O)CCCCCCCCCN(CCO)CCCN(CCCCCCCCCC(=O)OCCCCCCCCCCC)CCCCCCCCCC(=O)OCCCCCCCCCCC [Example 91, Undecyl 10-(29-hydroxy-13-oxo-23-(10-oxo-10-(undecyl)oxydecyl)-23,27-diaza-12-oxanonacosane-27-yl)caprate] |  | 62.74 |  |  | 91.4 |
| 0.28 | 76.22 |  | CCCCCC/C=C\COC(=O)CCCCCCCCCN(CCO)CCCN(CCCCCCCCCC(=O)OC/C=C\CCCCCC)CCCCCCCCCC(=O)OC/C=C\CCCCCC [Example 92, 10-((7Z)-27-hydroxy-21-(10-(((2Z)-non-2-enyl)oxy)-10-oxodecyl)-11-oxo-21,25-diaza-10-oxaheptacosane-7-en-25-yl)decanoic acid-(2Z)-non-2-en-1-yl ester] |  | 73.64 |  |  | 92.6 |
| 0.34 | 67.68 |  | CC/C=C\COC(=O)CCCCCCCN(CCO)CCCN(CCCCCCCC(=O)OC/C=C\CC)CCCCCCCC(=O)OC/C=C\CC [Example 97] |  | 83.64 |  |  | 90.5 |

| Compound | PDI [1] | Encapsulation rate, % [2] [%] | Particle size [1] | Cell viability, % (DC2.4 cells) [%] | Positive rate, % (DC2.4 cells) [%] | Mean fluorescence intensity (DC2.4 cells) | viability at 24 h [3] [%] | Cell viability, % (DC2.4 cells; 1440 min) [%] |
| --- | --- | --- | --- | --- | --- | --- | --- | --- |
| Tetratridecyl 8,8',8",8"-(((3-hydroxypropyl)azadiyl)di(propane-3,1-diyl))di(azanetriyl)tetraoctanoate [Example 99] | 0.26 | 69.17 |  | 93.2 | 77.44 | 0.49 |  |  |
